Reference: US12384797B2, “Thioeno[3,2-b] pyridin-7-amine compounds for treating familial dysautonomia” (PTC THERAPEUTICS, INC., priority 2019, dated 2025)

Tested on: Elongator complex protein 1 (ELP1, also referred to as IKBKAP)
Test: IKBKAP-HTRF assay (IKBKAP protein in lysates of FD patient-derived fibroblasts)
Format: cell-based, human
Details: 48 hours incubation, 7-point concentration curve
Summary of the method: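 Sandwich HTRF with two labelled anti-IKAP antibodies (overnight, 4 °C) measured IKBKAP in lysates of FD patient fibroblasts. Cells were exposed to compound for 48 h at 37 °C (7-point curve, 3.16-fold steps, triplicates). EC2x is the dose doubling IKBKAP versus DMSO control; MFI is sample ΔF divided by vehicle ΔF.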

SMILES | EC2x for IKBKAP protein expression (concentration producing two times the amount of IKBKAP protein vs DMSO vehicle control) | MFI (maximum fold increase in IKBKAP protein abundance relative to the vehicle control)
N[C@@H](CF)Cc1sc2c(NCc3cccs3)cc(Cl)nc2c1Cl [Compound 84, 2-[(2R)-2-amino-3-fluoropropyl]-3,5-dichloro-N-[(thiophen-2-yl)methyl]thieno[3,2-b]pyridin-7-amine] | ***** (≤0.005 μM is indicated by five stars (*****)) | ***** (>4.9 is indicated by five stars (*****))
N[C@H](Cc1sc2c(NCc3ccco3)cc(Cl)nc2c1Cl)C(=O)Nc1ccccc1F [Compound 124, 3-(3,5-dichloro-7-{[(furan-2-yl)methyl]amino}thieno[3,2-b]pyridin-2-yl)-N-(2-fluorophenyl)-D-alaninamide] | **** (between >0.005 μM and ≤0.02 μM is indicated by four stars (****)) | ***** (>4.9 is indicated by five stars (*****))
